Measurements published in patent publication US20070244103A1, “Novel Compounds Having an Anti-Bacterial Activity” (Morphochem Aktiengesellschaft Fur Kombinatorische Chemie, priority 2004, published 2007).

Assay: MIC of the examples against various organisms
Format: cell-based
Details: against at least two of the above organisms (12-strain panel)
Experimental: The MIC (μg/ml) of the examples against various organisms was determined: A. baumannii ATCC19606, E. cloacae ATCC23355, E. coli ATCC25922, K. pneumoniae ATCC27736, P. mirabilis ATCC29906, P. aeruginosa ATCC27853, S. maltophilia ATCC13637, S. aureus ATCC43300, S. epidermidis ATCC14990, S. haemolyticus ATCC29970, E. faecalis ATCC29212 and E. faecium ATC19434.

SMILES	MIC
COc1ccc2nccc(C(O)CN3CCCC(CNCc4ccc5c(c4)OCCO5)C3)c2n1 (single isomer, unassigned) [Example 3, 2-(3-{[(2,3-Dihydro-benzo[1,4]dioxin-6-ylmethyl)-amino]-methyl}-piperidin-1-yl)-1-(6-methoxy-[1,5]-naphthyridin-4-yl)-ethanol]	≤ 2 µg/mL
COc1ccc2nccc(C(O)CN3CCCC(CNCc4ccc5c(c4)NC(=O)CS5)C3)c2n1 (single isomer, unassigned) [Example 6, 6-[({1-[2-Hydroxy-2-(6-methoxy-[1,5]-naphthyridin-4-yl)-ethyl]-piperidin-3-ylmethyl}-amino)-methyl]-4H-benzo[1,4]thiazin-3-one]	≤ 2 µg/mL
COc1ccc2nccc(C(O)CN3CCCC(CNC/C=C/c4ccccc4)C3)c2n1 (single isomer, unassigned) [Example 7, 1-(6-Methoxy-[1,5]-naphthyridin-4-yl)-2-{3-[((E)-3-phenyl-allylamino)-methyl]-piperidin-1-yl}-ethanol]	≤ 2 µg/mL
COc1ccc2nccc(C(O)CN3C4CCC3CC(NCc3ccc5c(c3)NC(=O)CO5)C4)c2n1 (single isomer, unassigned) [Example 8, 6-({8-[2-Hydroxy-2-(6-methoxy-[1,5]-naphthyridin-4-yl)-ethyl]-8-aza-bicyclo[3.2.1]oct-3-ylamino}-methyl)-4H-benzo[1,4]oxazin-3-one]	≤ 2 µg/mL
COc1ccc2nccc(C(O)CN3C4CCC3CC(NCc3ccc5c(c3)OCO5)C4)c2n1 (single isomer, unassigned) [Example 9, 2-{3-[(Benzo[1,3]dioxol-5-ylmethyl)-amino]-8-aza-bicyclo[3.2.1]oct-8-yl}-1-(6-methoxy-[1,5]-naphthyridin-4-yl)-ethanol]	≤ 2 µg/mL
COc1ccc2nccc(C(O)CN3C4CCC3CC(NCc3ccc5c(c3)OCCO5)C4)c2n1 (single isomer, unassigned) [Example 10, 2-{3-[(2,3-Dihydro-benzo[1,4]dioxin-6-ylmethyl)-amino]-8-aza-bicyclo[3.2.1]oct-8-yl}-1-(6-methoxy-[1,5]-naphthyridin-4-yl)-ethanol]	≤ 2 µg/mL
COc1ccc2nccc(C(O)CN3C4CCC3CC(NCc3ccc5nsnc5c3)C4)c2n1 (single isomer, unassigned) [Example 11, 2-{3-[(Benzo[1,2,5]thiadiazol-5-ylmethyl)-amino]-8-aza-bicyclo[3.2.1]oct-8-yl}-1-(6-methoxy-[1,5]-naphthyridin-4-yl)-ethanol]	≤ 2 µg/mL
COc1ccc2nccc(C(O)CN3C4CCC3CC(NCc3ccc5c(c3)NC(=O)CS5)C4)c2n1 (single isomer, unassigned) [Example 13, 6-({8-[2-Hydroxy-2-(6-methoxy-[1,5]-naphthyridin-4-yl)-ethyl]-8-aza-bicyclo[3.2.1]oct-3-ylamino}-methyl)-4H-benzo[1,4]thiazin-3-one]	≤ 2 µg/mL
COc1ccc2nccc(C(O)CN3C4CCC3CC(NC/C=C/c3ccccc3)C4)c2n1 (single isomer, unassigned) [Example 14, 1-(6-Methoxy-[1,5]-naphthyridin-4-yl)-2-[3-((E)-3-phenyl-allylamino)-8-aza-bicyclo[3.2.1]oct-8-yl]-ethanol]	≤ 2 µg/mL
COc1cnc2cccc(C(O)CN3C4CCC3CC(NC/C=C/c3ccccn3)C4)c2c1 (single isomer, unassigned) [Example 35, 1-(3-Methoxy-quinolin-5-yl)-2-[3-((E)-3-pyridin-2-yl-allylamino)-8-aza-bicyclo[3.2.1]oct-8-yl]-ethanol]	≤ 2 µg/mL
COc1cnc2cccc(C(O)CN3C4CCC3CC(NCc3ccc5c(c3)NC(=O)CS5)C4)c2c1 (single isomer, unassigned) [Example 36, 6-({8-[2-Hydroxy-2-(3-methoxy-quinolin-5-yl)-ethyl]-8-aza-bicyclo[3.2.1]oct-3-ylamino}-methyl)-4H-benzo[1,4]thiazin-3-one]	≤ 2 µg/mL
